Results on 2 molecules are retold here after patent publication US20160355544A1, “NOVEL CHOLESTEROL METABOLITE, 5-CHOLESTEN, 3BETA-25-DIOL, DISULFATE (25HCDS) FOR THERAPY OF METABOLIC DISORDERS, HYPERLIPIDEMIA, DIABETES, FATTY LIVERS DISEASES AND ATHEROSCLEROSIS” (priority 2012, published 2016).

One data set concerns PPARγ. The data set can be described thus: PPARγ mRNA regulation by 25HC3S (comparison in discussion). Particulars: administration of 25HC3S, compared with 25HCDS.
A short description of data set [1]: Liver function assays in sera of HFD-fed mice. In kind it is in vivo, C57BL/6J mice. Particulars: data not shown. As to the method:
(§1) Animal studies were approved by Institutional Animal Care and Use Committee of McGuire Veterans Affairs Medical Center and were conducted in accordance with the Declaration of Helsinki, the Guide for the Care and Use of Laboratory Animals, and all applicable regulations. To examine the effect of 25HCDS on diet-induced lipid accumulation in sera and liver, 8-week-old female C57BL/6J mice (Charles River, Wilmington, Mass.) were fed high fat diet (HFD) (Harlan Teklad, Madison, Wis.) containing 42% kcal from fat, 43% kcal from carbohydrate, 15% kcal from protein and 0.2% cholesterol for 10 weeks. All mice were housed under identical conditions in an aseptic facility and given free access to water and food. At the end of each period, the mice were intraperitoneally injected with vehicle solution (ethanol/PBS; Vehicle), or 25HCDS (25 mg/kg) once every three days for 6 weeks and fasted for overnight; and blood samples were collected. Serum triglyceride, total cholesterol, high density lipoprotein-cholesterol, glucose, alkaline phosphatase (ALK), alanine aminotransferase (ALT), and aspartate aminotransferase (AST) were measured using standard enzymatic techniques in the clinical laboratory at McGuire Veterans Affairs Medical Center. Lipoprotein profiles in sera were analyzed by HPLC as described below.

In data set [2] the test system is Hepatic mRNA Expression involved in inflammatory responses in the Mice Fed a HFD. The data set can be described thus: Relative hepatic mRNA expression of inflammatory response genes in HFD-fed mice (real-time RT-PCR). Format: in vivo, C57BL/6J mice. Here is the method: (§2) Total RNA was isolated with SV Total RNA Isolation Kit (Promega, Madison, Wis.), which included DNase treatment. Total RNA, 2 μg, was used for the first-strand cDNA synthesis as recommended by the manufacturer (Invitrogen, Carlsbad, Calif.). Real-time RT-PCR was performed using a suitable dye as indicator on ABI 7500 Fast Real-Time PCR System (Applied Biosystems, Foster City, Calif.). All primer/probe sets for real-time PCR were TaqMan gene expression assays (Applied Biosystems, Foster City, Calif.). Amplifications of β-actin and glyceraldehyde 3-phosphate dehydrogenase (GAPDH) were used as internal controls. Relative messenger RNA (mRNA) expression was quantified with the comparative cycle threshold (Ct) method and was expressed as 2^−ΔΔct. The sequences of suitable primers for amplification are described, for example, in Ren et al., 2007 (1).
as §1

The subject of another data set is THP-1 macrophages. The data set can be described thus: mRNA levels in THP-1 macrophages by real-time RT-PCR. In kind it is cell-based, Human. Here is the method: Human THP-1 monocytes and HepG2 cells were purchased from the American Type Culture Collection (ATCC, Manassas, Va.) and maintained according to the supplier's protocols. THP-1 monocytes were differentiated to macrophages by adding 100 nM of phorbol 12-myristate 13-acetate (PMA). When cells reached ˜90% confluence, 25HCDS in ethanol (the final concentration of ethanol in media was 0.1%) was added. The cells were harvested at the indicated times for protein, mRNA, and lipid analysis.
as §2

Another data set relates to HFD-fed mice. The data set can be described thus: Quantification of hepatic lipids in mouse NAFLD model (HFD-fed mice). In kind it is in vivo, C57BL/6J mice. As to the method:
as §1
Liver tissues were homogenized, and lipids were extracted with a mixture of chloroform and methanol (2:1), and filtered. The extracts, 0.2 ml, were evaporated to dryness and dissolved in 100 μl of isopropanol containing 10% of TRITON™ X-100 (C14H22O(C2H4O)n), a nonionic surfactant) for cholesterol assay (Wako Chemicals USA, Richmond, Va.), the NEFA solution (0.5 g of EDTA-Na2, 2 g of TRITON™ X-100, 0.76 ml of IN NaOH, and 0.5 g of sodium azide/l, pH 6.5) for free fatty acid assay (Wako Chemicals USA, Richmond, Va.), or isopropanol only for triglyceride assay (Fisher Scientific, Pittsburgh, Pa.). All of the assays were performed according to the manufacturer's instructions, respectively. Each lipid concentration was normalized to liver weight.

Data set [3] in a line: Body mass, caloric intake, liver weight and toxicity during long-term treatment of HFD-fed mice. Format: in vivo, C57BL/6J mice. Here is the method:
as §1
To study the effects of long-term treatment of 25HCDS on lipid homeostasis, 8-week-old C57BL/6J female mice were fed a HFD for 10 weeks, and then divided into two groups. One group was treated with 25HCDS and the other with vehicle by peritoneal injection once every three days for six weeks. During the treatment, the mice were fed a HFD, and body mass and caloric intakes were monitored. […] After 6 weeks of injections, the mice were fasted overnight, and sacrificed.

The test system of data set [4] is Hepatic mRNA Expression involved in lipid metabolism in the Mice Fed a HFD. The data set can be described thus: Relative hepatic mRNA expression of lipid metabolism genes in HFD-fed mice (real-time RT-PCR). Conditions: 25HCDS 25 mg/kg i.p. once every three days for 6 weeks, HFD vehicle = 1.0, mean ± SD, n = 7. Format: in vivo, C57BL/6J mice. Here is the method: as §2, §1

Where [5] appears, read: 25 mg/kg i.p. once every three days for 6 weeks, versus HFD vehicle.
The mark [6] stands for this setting: 25HCDS 25 mg/kg i.p. once every three days for 6 weeks, HFD vehicle = 1.0, mean ± SD, n = 7.
[7] abbreviates: concentration dependent and time dependent, FIG. 5A.
The mark [8] stands for this setting: HFD-fed mice, 25 mg/kg i.p. once every three days for 6 weeks, versus HFD vehicle, 25 mg/kg.
Setting [9] is: in vivo studies, 25HCDS administration.
Setting [10] is: HFD-fed mice during 6 weeks of treatment, versus vehicle, data not shown.

“And” between values parts separate entries of the source, which are not always exact repeats. Identical values can stand only once.

Take `C[C@H](CCCC(C)(C)O)[C@H]1CC[C@H]2[C@@H]3CC=C4C[C@@H](OS(=O)(=O)O)CC[C@]4(C)[C@H]3CC[C@]12C` [25HC3S, 5-Cholesten-3β, 25-diol 3-sulfate]: the “PPARγ mRNA” value with PPARγ is recorded as “only slightly increases”. In data set [1], the “alkaline phosphatase activity in sera” value is reported as “decreasing”.

For the molecule `C[C@H](CCCC(C)(C)OS(=O)(=O)O)[C@H]1CC[C@H]2[C@@H]3CC=C4C[C@@H](OS(=O)(=O)O)CC[C@]4(C)[C@H]3CC[C@]12C` [25HCDS, 5-cholesten-3β, 25-diol, disulfate], in data set [2] (setting [5]), the “increase of PGC-1α expression in the liver” value turned out to be 2 fold, the “suppression of IL1β expression in liver” value came out at 36% and the “suppression of TNFα expression in liver” value was 50%. In data set [2] (setting [6]), the “IL1α relative hepatic mRNA expression” value stood at 1.02 ± 0.20, the “IL1β relative hepatic mRNA expression” value stood at 0.64 ± 0.16, the “IkBα relative hepatic mRNA expression” value is given as 1.35 ± 0.27 and the “PGC-1α relative hepatic mRNA expression” value is reported as 2.11 ± 0.82. In data set [2] (setting [6]), the “PPARα (Peroxisome proliferator-activated receptor gamma) relative hepatic mRNA expression” value worked out at 1.27 ± 0.52 and the “TNFv (Tumor necrosis factor a) relative hepatic mRNA expression” value is 0.50 ± 0.21. For the same molecule, the “PPARγ mRNA levels” value with THP-1 macrophages (FIG. 5C, 5D) is “linearly increased”. Besides, in the data set with THP-1 macrophages (FIGS. 5A and 5B), the “expression of SREBP1/2” value is given as “decreases”. Moreover, the IκBα expression result in the data set with THP-1 macrophages (at an early stage and at low concentrations) is given as “coincidently increased”. In the data set with THP-1 macrophages (setting [7]), the “ACC mRNA levels” value is given as “decreases” and the “FAS mRNA levels” value is on record as “decreases”. Besides, the “HMG-CoA reductase mRNA levels” value with THP-1 macrophages (concentration dependent and time dependent, FIG. 5B) is on record as “decreases”. Also, the “decrease of total cholesterol in liver tissue” value with HFD-fed mice (HFD-fed mice, 25 mg/kg i.p. once every three days for 6 weeks, versus HFD vehicle) is given as 30%. Besides, in the data set with HFD-fed mice (setting [8]), the “decrease of free fatty acids in liver tissue” value was 20% and 25%; the “decrease of triglycerides in liver tissue” value is 18% and 20%. Further, the “decrease of hepatic neutral lipids” value in the data set with HFD-fed mice (setting [9]) is 20-35%. Moreover, in data set [3] (setting [10]), the body mass entry is recorded as “No significant difference” and the caloric intakes entry is reported as “No significant difference”. Further, the liver weights result in data set [3] (after 6 weeks of injections, data not shown) was “did not show significant differences”. The toxicity result in data set [3] (setting [9]) is “without exhibiting toxicity”. In data set [4], the “ACC1 relative hepatic mRNA expression” value is 0.86 ± 0.18, the “CD36 relative hepatic mRNA expression” value is listed as 0.69 ± 0.29, the “FAS relative hepatic mRNA expression” value is 0.68 ± 0.17 and the “GPAM relative hepatic mRNA expression” value came to 0.74 ± 0.18. Besides, in data set [4], the “HMGR relative hepatic mRNA expression” value is 0.84 ± 0.07, the “LDLR relative hepatic mRNA expression” value is given as 0.62 ± 0.08, the “MTTP relative hepatic mRNA expression” value was determined as 0.94 ± 0.17 and the “PLTP relative hepatic mRNA expression” value came out at 0.68 ± 0.21. In addition, in data set [4], the “SREBP-1c relative hepatic mRNA expression” value is 0.64 ± 0.14 and the “SREBP-2 relative hepatic mRNA expression” value is given as 1.12 ± 0.25.
